In patent EP0454444A1, “Glutarimide derivatives and herbicides” (NISSAN CHEMICAL INDUSTRIES LTD., priority 1990, dated 1991):

Tests used:
Test in all cases: Herbicidal effect test by soil treatment
Type in all cases: in vivo
[1] = test system: rice (Oryza sativa); details: crop plant, three weeks after spraying
Method in brief: (§1)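 Pre-emergence test: seeds of mixed weeds and crops were sown in sterilized diluvial soil, covered with about 1 cm soil, then the surface was sprayed with water-diluted formulations at set active-ingredient rates. Three weeks later, growth control was scored from top fresh weight of treated versus untreated plants.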

[2] = test system: black nightshade (Solanum nigrum L.); details: three weeks after spraying
Method in brief: as §1

[3] = test system: corn (Zea mays); details: crop plant, three weeks after spraying
Method in brief: as §1

[4] = test system: soybean (Glysine max); details: crop plant, three weeks after spraying
Method in brief: as §1

[5] = test system: annual sedge (Cyperus microiria); details: three weeks after spraying
Method in brief: as §1

[6] = test system: large crabgrass (Digitaria adscendens); details: three weeks after spraying
Method in brief: as §1

[7] = test system: rorippa ssp. (Rorippa atrovirens); details: three weeks after spraying
Method in brief: as §1

[8] = test system: wheat (Triticum aestivum); details: crop plant, three weeks after spraying
Method in brief: as §1

[9] = test system: barnyardgrass (Echinochloa crusgalli); details: three weeks after spraying
Method in brief: as §1

[10] = test system: cotton (Gossypium herbaceum); details: crop plant, three weeks after spraying
Method in brief: as §1

[11] = test system: hairly galinosoga (Galinsoga ciliat); details: three weeks after spraying
Method in brief: as §1

O=C1CC(C(F)(F)F)CC(=O)N1Cc1ccc(Cl)cc1 [1-31]
herbicidal effect, R (Oryza sativa) ([1]; application amount 6.3 g/a): 0 (Growth control rates of less than 5% (substantially no effect))
herbicidal effect, H (Solanum nigrum L.) ([2]; application amount 6.3 g/a): 5 (Growth control,rates of more than 90% (almost completely withered))
herbicidal effect, T (Zea mays) ([3]; application amount 6.3 g/a): 0 (Growth control rates of less than 5% (substantially no effect))
herbicidal effect, S (Glysine max) ([4]; application amount 6.3 g/a): 0 (Growth control rates of less than 5% (substantially no effect))
herbicidal effect, K (Cyperus microiria) ([5]; application amount 6.3 g/a): 5 (Growth control,rates of more than 90% (almost completely withered))
herbicidal effect, M (Digitaria adscendens) ([6]; application amount 6.3 g/a): 4 (Growth control rates of 70 to 90%)
herbicidal effect, I (Rorippa indica) ([7]; application amount 6.3 g/a): 5 (Growth control,rates of more than 90% (almost completely withered))
herbicidal effect, W (Triticum vulgare) ([8]; application amount 6.3 g/a): 0 (Growth control rates of less than 5% (substantially no effect))
herbicidal effect, N (Echinochloa crusgalli) ([9]; application amount 6.3 g/a): 4 (Growth control rates of 70 to 90%)
herbicidal effect, C (Gossypium herbaceum) ([10]; application amount 6.3 g/a): 0 (Growth control rates of less than 5% (substantially no effect))
herbicidal effect, D (Galinsoga ciliat) ([11]; application amount 6.3 g/a): 5 (Growth control,rates of more than 90% (almost completely withered))

CCOC(=O)Nc1cc(N2C(=O)CC(C(F)(F)F)CC2=O)c(F)cc1Cl [1-35]
herbicidal effect, R (Oryza sativa) ([1]; application amount 1.6 g/a): 0 (Growth control rates of less than 5% (substantially no effect))
herbicidal effect, H (Solanum nigrum L.) ([2]; application amount 1.6 g/a): 5 (Growth control,rates of more than 90% (almost completely withered))
herbicidal effect, T (Zea mays) ([3]; application amount 1.6 g/a): 0 (Growth control rates of less than 5% (substantially no effect))
herbicidal effect, S (Glysine max) ([4]; application amount 1.6 g/a): 0 (Growth control rates of less than 5% (substantially no effect))
herbicidal effect, K (Cyperus microiria) ([5]; application amount 1.6 g/a): 5 (Growth control,rates of more than 90% (almost completely withered))
herbicidal effect, M (Digitaria adscendens) ([6]; application amount 1.6 g/a): 5 (Growth control,rates of more than 90% (almost completely withered))
herbicidal effect, I (Rorippa indica) ([7]; application amount 1.6 g/a): 5 (Growth control,rates of more than 90% (almost completely withered))
herbicidal effect, W (Triticum vulgare) ([8]; application amount 1.6 g/a): 1 (Growth control rates of 5 to 20%)
herbicidal effect, N (Echinochloa crusgalli) ([9]; application amount 1.6 g/a): 4 (Growth control rates of 70 to 90%)
herbicidal effect, C (Gossypium herbaceum) ([10]; application amount 1.6 g/a): 0 (Growth control rates of less than 5% (substantially no effect))
herbicidal effect, D (Galinsoga ciliat) ([11]; application amount 1.6 g/a): 5 (Growth control,rates of more than 90% (almost completely withered))
